The record followed here is patent publication US12410152B2, “Oxazole and thioazole-type cullin ring ubiquitin ligase compounds and uses thereof” (Proxygen GmbH, priority 2019, dated 2025).

The target of this assay is T1, CDK12:CCNK and DDB1:CUL4B (Homo sapiens, UniProt Q16531+Q9NYV4).
T1 construct: expressed in transfected cells; host or cells: 293T (HEK) cells, transient transfection
The assay is described as follows: Biotin proximity labeling with miniTurbo in live cells. The note with it: HEK/293T cells with DDB1- or CDK12-mTurbo fusions, carfilzomib 10 μM. Type of assay: cell-based. The procedure:
The direct, drug-induced association of CDK12:CCNK and DDB1:CUL4B was further assessed in a cellular assay based on enzyme-catalyzed proximity labeling via the efficient biotin ligase miniTurbo (mTurbo) (Branon, T. C. et al. Efficient proximity labeling in living cells and organisms with TurboID. Nat Biotechnol 36, 880-887, doi:10.1038/nbt.4201 (2018)) was performed. This assay enables recording dynamic changes in molecular proximity of an mTurbo-tagged bait protein by streptavidin purification of covalently biotinylated, proximal proteins. For this purpose, c-terminally tagged DDB1, or CDK12 mTurbo-fusions were transiently expressed in HEK cells. Cells were treated for one hour with C020772.1 or vehicle (DMSO) control, including a 30 minute biotin labeling pulse (FIG. 20 g, h). […] Vice-versa, DDB1 was only identified as CDK12 interactor after drug treatment, but was not purified after vehicle-control treatment (FIG. 20 h). […]
One 10-cm culture plate of 293T cells (70%-80% confluent) was transfected with 2 μg of pLenti_DDB1_miniTurbo_V5 or pLenti_CDK12_miniTurbo_V5 using Lipofectamine 2000 (Invitrogen, 11668019). […] Eluates were analyzed by WB. Quantification was performed with ImageJ.

Each structure is given as a SMILES string.

T1 sequence (Q9NYV4 whole entry): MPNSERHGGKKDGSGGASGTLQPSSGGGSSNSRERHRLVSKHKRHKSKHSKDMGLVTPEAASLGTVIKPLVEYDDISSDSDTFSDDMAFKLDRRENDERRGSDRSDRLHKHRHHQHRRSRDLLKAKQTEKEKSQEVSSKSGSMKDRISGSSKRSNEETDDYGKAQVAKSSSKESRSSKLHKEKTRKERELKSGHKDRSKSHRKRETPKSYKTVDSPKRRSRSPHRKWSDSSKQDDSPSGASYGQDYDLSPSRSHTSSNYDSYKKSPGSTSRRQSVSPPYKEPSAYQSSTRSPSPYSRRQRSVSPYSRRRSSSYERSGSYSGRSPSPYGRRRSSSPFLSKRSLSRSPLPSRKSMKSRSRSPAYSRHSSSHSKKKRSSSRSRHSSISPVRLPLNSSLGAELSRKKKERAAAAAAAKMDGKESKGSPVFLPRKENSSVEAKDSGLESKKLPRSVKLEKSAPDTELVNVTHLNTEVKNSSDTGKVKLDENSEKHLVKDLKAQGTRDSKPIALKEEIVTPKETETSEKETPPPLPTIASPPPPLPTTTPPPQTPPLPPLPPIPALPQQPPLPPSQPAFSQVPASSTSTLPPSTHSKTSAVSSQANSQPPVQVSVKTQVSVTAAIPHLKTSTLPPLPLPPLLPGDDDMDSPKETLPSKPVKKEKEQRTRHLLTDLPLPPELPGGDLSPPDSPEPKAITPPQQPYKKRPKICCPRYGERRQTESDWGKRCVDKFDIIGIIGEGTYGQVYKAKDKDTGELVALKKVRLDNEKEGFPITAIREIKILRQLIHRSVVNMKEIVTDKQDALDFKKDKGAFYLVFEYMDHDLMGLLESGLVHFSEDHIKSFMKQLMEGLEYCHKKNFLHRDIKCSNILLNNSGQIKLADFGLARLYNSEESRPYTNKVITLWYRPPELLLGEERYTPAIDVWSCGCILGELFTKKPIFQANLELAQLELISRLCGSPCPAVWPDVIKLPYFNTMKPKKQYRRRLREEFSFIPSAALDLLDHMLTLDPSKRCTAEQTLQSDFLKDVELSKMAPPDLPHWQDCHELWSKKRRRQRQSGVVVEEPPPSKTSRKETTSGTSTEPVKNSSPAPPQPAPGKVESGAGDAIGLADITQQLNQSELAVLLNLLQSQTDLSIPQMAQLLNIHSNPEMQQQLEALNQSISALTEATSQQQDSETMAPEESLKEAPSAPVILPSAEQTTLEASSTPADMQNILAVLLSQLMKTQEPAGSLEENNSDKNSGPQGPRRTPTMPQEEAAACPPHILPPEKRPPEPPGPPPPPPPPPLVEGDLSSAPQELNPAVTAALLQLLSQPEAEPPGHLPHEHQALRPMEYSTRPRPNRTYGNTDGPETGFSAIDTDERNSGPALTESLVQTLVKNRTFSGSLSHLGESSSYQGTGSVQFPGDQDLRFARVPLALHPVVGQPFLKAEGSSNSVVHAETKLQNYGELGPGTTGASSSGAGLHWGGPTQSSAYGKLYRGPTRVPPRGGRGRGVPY
T1 sequence (O75909 whole entry partner): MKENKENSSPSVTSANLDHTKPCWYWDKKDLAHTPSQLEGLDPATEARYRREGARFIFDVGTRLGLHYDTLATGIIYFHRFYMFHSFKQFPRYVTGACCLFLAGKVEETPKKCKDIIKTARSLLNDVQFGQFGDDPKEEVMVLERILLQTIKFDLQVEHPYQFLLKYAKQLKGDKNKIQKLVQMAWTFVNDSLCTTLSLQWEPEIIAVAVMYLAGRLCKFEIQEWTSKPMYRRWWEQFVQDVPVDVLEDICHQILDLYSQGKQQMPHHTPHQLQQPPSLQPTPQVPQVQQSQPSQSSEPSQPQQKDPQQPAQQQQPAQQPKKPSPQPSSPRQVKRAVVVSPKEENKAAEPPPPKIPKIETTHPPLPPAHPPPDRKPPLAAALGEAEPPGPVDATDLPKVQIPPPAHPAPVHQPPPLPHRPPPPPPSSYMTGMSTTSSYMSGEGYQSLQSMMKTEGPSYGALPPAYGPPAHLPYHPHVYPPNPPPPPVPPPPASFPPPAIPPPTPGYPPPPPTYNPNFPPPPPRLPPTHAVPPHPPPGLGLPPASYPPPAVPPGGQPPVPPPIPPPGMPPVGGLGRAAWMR
T1 sequence (Q16531 whole entry): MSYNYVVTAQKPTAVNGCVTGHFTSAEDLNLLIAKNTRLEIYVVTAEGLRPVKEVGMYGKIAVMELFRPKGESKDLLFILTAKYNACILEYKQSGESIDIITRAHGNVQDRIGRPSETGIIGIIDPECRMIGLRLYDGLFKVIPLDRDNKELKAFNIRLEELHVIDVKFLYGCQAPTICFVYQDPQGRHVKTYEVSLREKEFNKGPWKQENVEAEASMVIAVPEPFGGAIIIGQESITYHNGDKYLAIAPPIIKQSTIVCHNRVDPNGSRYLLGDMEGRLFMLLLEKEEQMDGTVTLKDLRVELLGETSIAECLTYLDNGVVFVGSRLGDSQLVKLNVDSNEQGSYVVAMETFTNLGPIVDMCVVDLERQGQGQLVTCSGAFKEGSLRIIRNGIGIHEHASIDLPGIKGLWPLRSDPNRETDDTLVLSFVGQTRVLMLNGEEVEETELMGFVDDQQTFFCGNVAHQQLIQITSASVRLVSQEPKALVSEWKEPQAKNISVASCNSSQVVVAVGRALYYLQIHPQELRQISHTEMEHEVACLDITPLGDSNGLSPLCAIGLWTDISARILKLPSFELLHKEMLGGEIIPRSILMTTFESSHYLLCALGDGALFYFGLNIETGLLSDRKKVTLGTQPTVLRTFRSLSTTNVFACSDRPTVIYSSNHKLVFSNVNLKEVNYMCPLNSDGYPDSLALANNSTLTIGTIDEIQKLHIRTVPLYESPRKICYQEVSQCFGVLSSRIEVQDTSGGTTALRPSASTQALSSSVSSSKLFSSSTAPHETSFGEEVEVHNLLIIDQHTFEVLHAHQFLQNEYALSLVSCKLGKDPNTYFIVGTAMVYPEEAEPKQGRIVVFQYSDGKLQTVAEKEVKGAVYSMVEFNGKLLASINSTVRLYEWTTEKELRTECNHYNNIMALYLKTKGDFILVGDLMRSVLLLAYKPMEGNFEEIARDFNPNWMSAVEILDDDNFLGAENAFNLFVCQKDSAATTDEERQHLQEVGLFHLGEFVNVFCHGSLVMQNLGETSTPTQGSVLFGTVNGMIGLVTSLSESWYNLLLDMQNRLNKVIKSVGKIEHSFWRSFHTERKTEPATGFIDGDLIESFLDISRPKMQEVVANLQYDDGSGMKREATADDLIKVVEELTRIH

On to `O=C(CSc1nnc2c(n1)[nH]c1ccccc12)Nc1ccc(Cl)cn1` [IC020772.1], for which the “drug-induced CDK12-DDB1 proximity (biotin labeling)” value is “CDK12 interactions with DDB1 were exclusively identified in the presence of IC020772.1”.
